Laboratory results: US8044100B2, “Methods and compositions for treating amyloid-related diseases” (Bellus Health Inc., priority 2004, dated 2011)

Experiments:
NAC peptide = biological target: T1, NAC peptide (Homo sapiens, UniProt P37840); experiment: Binding to NAC peptide by electrospray mass spectrometry; conditions: 5:1 ratio compound:NAC (100 μM:20 μM or 200 μM:40 μM), pH 7.4; bound complex peak area / unbound NAC peak area
T1 construct: NAC is a 35 amino acid long peptide with highly hydrophobic stretches
Procedure: The ability of the compounds of the present invention to bind to NAC peptide in aqueous solution was evaluated. The binding ability correlates to the intensities of the peptide-compound complex peaks observed by the Electrospray Mass Spectrum. Millipore distilled deionized water was used to prepare all aqueous solutions. For pH determination a Beckman Φ36 pH meter fitted with a Corning Semi-Micro Combination pH Electrode was employed.
The optimal cone voltage was determined to be 20V.
Mass spectrometry—Mass spectrometric analysis was performed using a Waters ZQ 4000 mass spectrometer equipped with a Waters 2795 sample manager. MassLynx 4.0 (earlier by MassLynx 3.5) was used for data processing and analysis. Test compounds were mixed with disaggregated peptides in aqueous media (6.6% EtOH) at a 5:1 ratio (20 μM NAC:100 μM of test compound or 40 μM NAC:200 μM of test compound). The pH of the mixture was adjusted to 7.4 (+0.2) using 0.1% NaOH (3-5 μL). Periodically, NAC peptide solution at 20 μM or 40 μM was also prepared in the same fashion and run as control. The spectra were obtained by introducing the solutions to the electrospray source by direct infusion using a syringe pump at a flow rate of 25 μl/min, and scanning from 100 to 2100 Da in the positive mode. The scan time was 0.9 sec per scan with an inter-scan delay of 0.1 sec and the run time was 5 min for each sample. All the mass spectra were sum of 300 scans. The desolvation and source temperature was 70° C. and the cone and capillary voltage were maintained at 20 V and 3.2 kV respectively.
The total area under the peaks for the bound NAC-compound complex divided by total area under the peaks for unbound NAC was determined for each compound tested.

[1] = tested on: Aβ peptides (Aβ40, Aβ42) in the plasma and brain of TgCRND8 mice; experiment: Short term treatment (14 or 28 days) in TgCRND8 mice: Aβ levels in plasma and brain by ELISA; assay type: in vivo, mouse;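 as to Aβ40 Change Insoluble: symbols grade percent change in Aβ versus untreated control with plus for increase and minus for decrease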;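 as to Aβ40 Change Soluble: symbols grade percent change in Aβ versus untreated control with plus for increase and minus for decrease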;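 as to Aβ42 Change Insoluble: symbols grade percent change in Aβ versus untreated control with plus for increase and minus for decrease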
Procedure: The short term therapeutic effect of 19 compounds of the invention was studied. These compounds were administered over a 14 or 28 day period at the end of which the levels of Aβ peptides in the plasma and brain of TgCRND8 animals were determined.
Male and female transgenic mice from the 3rd and 4th B6C3F1 generations were used in this example and given daily subcutaneous or oral administrations of one of a series of compounds for 14 or 28 days. The following abbreviations are used to designate these animals from the 3rd and 4th generation backcross in the present protocol: TgCRND8-2.B6C3F1(N3); TgCRND8-2.B6C3F1 (N4).
Baseline animals (Group 1) consisted of naive TgCRND8-2. B6C3F1(N3) at 11±1 weeks of age. These mice were used to determine the Aβ levels in the plasma and brain of naive transgenic animals at the initiation of treatment.
Starting at 11 weeks of age (±1 week) animals received daily administration of their respective treatment for a period of 14 or 28 days (groups 2-21), at a dose of 250 mg/kg at 10 ml/kg or of vehicle only (water; group 2) or 1% methyl cellulose only (group 21). The route of administration was subcutaneous for water-soluble compounds and oral for compounds solubilized in methylcellulose 1%. (MC 1%). At the end of the treatment periods, plasma and perfused brains were collected for quantification of Aβ levels.
At 11±1 weeks of age for the Baseline group, and at the end of the treatment period (14 or 28 days) for Groups 2 to 21, at 24 hours after the last compound administration animals were sacrificed and samples collected. An approximate blood volume of 500 μl was collected from the orbital sinus and kept on ice until centrifugation at 4° C. at a minimum speed of 3,000 rpm for 10 minutes. Plasma samples were immediately frozen and stored at −80° C. pending analysis. The brains were removed, frozen, and stored at −80° C. awaiting analysis.
Brains were weighted frozen and homogenized with 4 volumes of ice cold 50 mM Tris-Cl pH 8.0 buffer with protease inhibitor cocktail (4 mL of buffer for 1 g of wet brain). Samples were spun at 15000 g for 20 minutes and the supernatants were transferred to fresh tubes. One hundred fifty (150) μl from each supernatant were mixed with 250 μl of 8M guanidine-HCL/50 mM Tris-HCL pH 8.0 (ratio of 0.6 vol supernatant:1 vol 8M guanidium/Tris-HCL 50 mM pH8.0) and 400 μL 5 M guanidium/Tris-HCL 50 mM pH8.0 were added. The tubes were vortexed for 30 seconds and frozen at −80° C. In parallel, pellets were treated with 7 volumes of 5 M guanidine-HCL/50 mM Tris-HCL pH 8.0 (7 mL of guanidine for 1 g of wet brain), vortexed for 30 seconds and frozen at −80° C. Samples were thawed at room temperature, sonicated at 80° C. for 15 minutes and frozen again. This cycle was repeated 3 times to ensure homogeneity and samples were returned to −80° C. pending analysis.
Aβ levels were evaluated in plasma and brain samples by ELISA using Human Aβ40 and Aβ42 Fluorometric ELISA kits from Biosource (Cat. No. 89-344 and 89-348) according to manufacturer's recommended procedures. In short, samples were thawed at room temperature, sonicated for 5 minutes at 80° C. (sonication for brain homogenates; no sonication for plasma samples) and kept on ice. Aβ peptides were captured using 100 μl of the diluted samples to the plate and incubated without shaking at 4° C. overnight. The samples were aspirated and the wells were rinsed 4 times with wash buffer obtained from the Biosource ELISA kit. The anti-Aβ40 or anti-Aβ42 rabbit polyclonal antiserum (specific for the Aβ40 or Aβ42 peptide) was added (100 μl) and the plate was incubated at room temperature for 2 hours with shaking. The wells were aspirated and washed 4 times before adding 100 μl of the alkaline phosphatase labeled anti-rabbit antibody and incubating at room temperature for 2 hours with shaking. The plates were then rinsed 5 times and the fluorescent substrate (100 μl) was added to the plate. […]

[2] = tested on: Aβ peptides (Aβ40, Aβ42) in the plasma and brain of TgCRND8 mice; experiment: Long term treatment (8 or 16 weeks) in TgCRND8 mice: Aβ levels in plasma and brain; assay type: in vivo, mouse; conditions: BX subcutaneous, BW and BZ oral
Procedure: The long-term therapeutic effects of compounds of the present invention on cerebral amyloid deposition and β-amyloid (Aβ) levels in the plasma and in the brains of transgenic mice, TgCRND8, expressing the human amyloid precursor protein (hAPP) was studied. These compounds were administered over an 8 or 16 week period at the end of which the levels of Aβ peptides in the plasma and brain of TgCRND8 animals were determined. The goal of this study was to evaluate the efficacy of the compounds at modulating the progression of the amyloidogenic process in the brain and in the plasma of a transgenic mouse model of Alzheimer's disease (AD)
The mice used in the study consisted of animals bearing one copy of the hAPP gene (+/−) from the 2nd and 3rd generation progenies (N2 and N3) derived from backcrosses from TgCRND8.FVB(N2)AJ(N3) with B6AF1/J hybrid animals. • N1=TgCRND8.FVB(N2)AJ(N3)×B6AF1/J • N2=TgCRND8.FVB(N2)AJ(N3).B6AF1/J(N1)×B6AF1/J • N3=TgCRND8.FVB(N2)AJ(N3).B6AF1/J(N2)×B6AF1/J
The following abbreviations are used to designate these animals in the present study: TgCRND8.B6AF1/J(N2); TgCRND8.B6AF1/J(N3). Male and female transgenic mice were given daily subcutaneous (compound BX) or oral (compounds BW and BZ) administrations of the appropriate compounds for 8 or 16 weeks.
Baseline animals consisted of 9±1 week old naive TgCRND8.B6AF1/J animals from the 2nd and 3rd generations. These mice were used to determine the extent of cerebral amyloid deposits and Aβ levels in the plasma and brain of naive transgenic animals at the initiation of treatment.
Starting at 9 weeks of age (+1 week) animals received daily administration of their respective treatment for a period of 8 or 16 weeks, at a dose of 30 or 100 mg/kg at 10 ml/kg. The route of administration was subcutaneous for water-soluble compounds (Compound BX) and oral for compounds solubilized in methylcellulose 1% (MC 1%) (Compounds BW and BZ). At the end of the treatment periods, plasma and perfused brains were collected for quantification of Aβ levels.
Animal health was monitored, samples were collected and Aβ levels were measured as described above in the short term treatment study. Compounds were scored based on their ability to modulate levels of Aβ peptides in the plasma and the cerebral soluble/insoluble levels in the brain. Levels of Aβ observed in the plasma and brain of treated animals were compared to that of vehicle-treated (water) or methylcellulose-treated control groups and ranked according to the strength of the pharmacological effect. Increases in the levels of Aβ peptides are indicated using “+” symbols, while decreases in the levels of Aβ peptides are indicated using “−” symbols. The strongest effects are recorded as “+++” or “−−−” while the weakest are shown as “+” or “−”.
Specifically, increases in the levels of Aβ (relative to vehicle treated control) of 5 to 14% are scored as “+”; increases of 15 to 29% are scored as “++”; and increases of 30% or higher are scored as “+++”. Decreases in the levels of Aβ of 5 to 14% are scored as “−”; decreases of 15 to 29% are scored as “−−”; and decreases of 30% or more are scored as “−−−”. Additionally, changes of 4% or less in either direction are scored as “0”.

[3] = brain homogenate, Day 14, methylcellulose group, daily oral
[4] = brain homogenate, Day 28, methylcellulose group, daily oral
[5] = plasma, Day 28, methylcellulose group, daily oral

NCCCCS(=O)(=O)O
Binding Strength (NAC peptide): + (Weak; when the total binding is between 70% and 30%)

O=S(=O)(O)CCCNC1C2CC3CC(C2)CC1C3 (stereo not drawn) [BZ]
Aβ40 Change Insoluble [1, 3]: −−− (decreases of 39% or more)
Aβ42 Change Insoluble [1, 3]: −− (decreases of 20 to 38%)
Aβ40 Change Insoluble [1, 4]: −− (decreases of 20 to 38%)
Aβ40 Change Soluble [1, 4]: −− (decreases of 20 to 38%)
Aβ42 Change Insoluble [1, 4]: −− (decreases of 20 to 38%)
Aβ40 Change ([1]; plasma, Day 14, methylcellulose group, 250 mg/kg daily oral): + (increases in the levels of Aβ (relative to untreated control) of 20 to 39%)
Aβ40 Change [1, 5]: ++ (increases of 40 to 69%)
Aβ42 Change [1, 5]: ++ (increases of 40 to 69%)
Brain Abeta40 insoluble ([2]; 30 mg/kg daily, 8 wks): −− (decreases of 15 to 29%)
Brain Abeta40 soluble ([2]; 30 mg/kg daily, 8 wks): 0 (changes of 4% or less in either direction)
Brain Abeta42 insoluble ([2]; 30 mg/kg daily, 8 wks): −−− (decreases of 30% or more)
Brain Abeta42 soluble ([2]; 30 mg/kg daily, 8 wks): 0 (changes of 4% or less in either direction)
Plasma Abeta40 ([2]; 30 mg/kg daily, 8 wks): 0 (changes of 4% or less in either direction)
Plasma Abeta42 ([2]; 30 mg/kg daily, 8 wks): 0 (changes of 4% or less in either direction)
Brain Abeta40 insoluble ([2]; 30 mg/kg daily, 16 wks): + (increases in the levels of Aβ (relative to vehicle treated control) of 5 to 14%)
Brain Abeta40 soluble ([2]; 30 mg/kg daily, 16 wks): 0 (changes of 4% or less in either direction)
Brain Abeta42 insoluble ([2]; 30 mg/kg daily, 16 wks): 0 (changes of 4% or less in either direction)
Brain Abeta42 soluble ([2]; 30 mg/kg daily, 16 wks): + (increases in the levels of Aβ (relative to vehicle treated control) of 5 to 14%)
Plasma Abeta40 ([2]; 30 mg/kg daily, 16 wks): 0 (changes of 4% or less in either direction)
Plasma Abeta42 ([2]; 30 mg/kg daily, 16 wks): + (increases in the levels of Aβ (relative to vehicle treated control) of 5 to 14%)
Brain Abeta40 insoluble ([2]; 100 mg/kg daily, 8 wks): 0 (changes of 4% or less in either direction)
Brain Abeta40 soluble ([2]; 100 mg/kg daily, 8 wks): ++ (increases of 15 to 29%)
Brain Abeta42 insoluble ([2]; 100 mg/kg daily, 8 wks): − (Decreases in the levels of Aβ of 5 to 14%)
Brain Abeta42 soluble ([2]; 100 mg/kg daily, 8 wks): 0 (changes of 4% or less in either direction)
Plasma Abeta40 ([2]; 100 mg/kg daily, 8 wks): ++ (increases of 15 to 29%)
Plasma Abeta42 ([2]; 100 mg/kg daily, 8 wks): +++ (increases of 30% or higher)
Brain Abeta40 insoluble ([2]; 100 mg/kg daily, 16 wks): 0 (changes of 4% or less in either direction)
Brain Abeta40 soluble ([2]; 100 mg/kg daily, 16 wks): −− (decreases of 15 to 29%)
Brain Abeta42 insoluble ([2]; 100 mg/kg daily, 16 wks): + (increases in the levels of Aβ (relative to vehicle treated control) of 5 to 14%)
Brain Abeta42 soluble ([2]; 100 mg/kg daily, 16 wks): − (Decreases in the levels of Aβ of 5 to 14%)
Plasma Abeta40 ([2]; 100 mg/kg daily, 16 wks): ++ (increases of 15 to 29%)
Plasma Abeta42 ([2]; 100 mg/kg daily, 16 wks): ++ (increases of 15 to 29%)

NCCCOS(=O)(=O)[O-].[Na+] [H2NCH2CH2CH2OSO3Na]
Binding Strength (NAC peptide): ++ (Moderate; when the total binding is between 120% and 70%)

NCCS(=O)(=O)O [H2NCH2CH2SO3H]
Binding Strength (NAC peptide): + (Weak; when the total binding is between 70% and 30%)

NCCOS(=O)(=O)O [NH2CH2CH2OSO3H]
Binding Strength (NAC peptide): − (None; when the total binding is between 30% and 0%)

O=S(=O)([O-])CCCCS(=O)(=O)[O-].[Na+].[Na+] [NaO3SCH2(CH2)2CH2SO3Na]
Binding Strength (NAC peptide): − (None; when the total binding is between 30% and 0%)

O=S(=O)([O-])OCCCOS(=O)(=O)[O-].[Na+].[Na+] [NaO3SOCH2CH2CH2OSO3Na]
Binding Strength (NAC peptide): − (None; when the total binding is between 30% and 0%)

CC(C)(C)NCCCS(=O)(=O)O [drawing 748]
Binding Strength (NAC peptide): ++ (Moderate; when the total binding is between 120% and 70%)
